Where “and” joins values, the source holds several entries; their conditions need not be identical. Identical values can stand only once.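 These data come from cells grown in 96-well plates and exposed to compound for 48 hours at five concentrations. GI50 marks 50% less growth. At the TGI there is no net growth.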
What was measured:
Assay in all cases: NCI anticancer screen, dose series, 48 h
A549 NSCLC = system: A549 NSCLC
ACHN renal = system: ACHN renal
M14 melanoma = system: M14 melanoma
NCI/ADR-RES ovarian = system: NCI/ADR-RES ovarian
OVCAR-3 ovarian = system: OVCAR-3 ovarian
OVCAR-4 ovarian = system: OVCAR-4 ovarian
RXF 393 renal = system: RXF 393 renal
SK-MEL-2 melanoma = system: SK-MEL-2 melanoma
SK-MEL-28 melanoma = system: SK-MEL-28 melanoma
SNB-19 CNS = system: SNB-19 CNS

Row | SMILES | TGI (A549 NSCLC) [µM] | GI50 (ACHN renal) [µM] | GI50 (M14 melanoma) [µM] | TGI (M14 melanoma) [µM] | GI50 (NCI/ADR-RES ovarian) [µM] | TGI (NCI/ADR-RES ovarian) | GI50 (OVCAR-3 ovarian) | TGI (OVCAR-3 ovarian) | GI50 (OVCAR-4 ovarian) [µM] | TGI (OVCAR-4 ovarian) | TGI (RXF 393 renal) | GI50 (SK-MEL-2 melanoma) [µM] | TGI (SK-MEL-2 melanoma) | GI50 (SK-MEL-28 melanoma) | TGI (SK-MEL-28 melanoma) | GI50 (SNB-19 CNS) [µM] | TGI (SNB-19 CNS) | GI50 (A549 NSCLC) [µM] | TGI (ACHN renal) [µM] | GI50 (RXF 393 renal) [µM]
1 | Nc1ncnc2c(C3OC(CO)C(O)C3O)[nH]nc12 (configuration not stated) | 9.43 | 0.0944 | 0.248 | 13.5 | 0.0484 | 2.85 µM and 1.17 µM | 0.168 µM and 0.071 µM | 1.79 µM and 0.377 µM | 0.116 | 3.51 µM and 2.3 µM | 2.92 µM and 1.88 µM | 0.0507 | 0.739 µM and 0.5 µM | 2.64 µM and 1.69 µM | 30.6 µM and 25.4 µM | 0.138 | 3.68 µM and 24.8 µM |  |  | 
2 | Nc1nc(N)c2c(ccc3nccc32)[nH]1 | > 100 | 4.24 | 1.92 | > 79.8 | 6.61 | > 100 µM | 7.68 µM | 36.6 µM | 21.5 | 66.6 µM | 17.8 µM | 10.1 | 37.1 µM | 14.7 µM | > 93.8 µM | 7.98 | > 100 µM | 0.755 | 36 | 3.09
3 | C[C@H]1[C@H](C)CC[C@]2(C(=O)O)CC[C@]3(C)C(=CC[C@@H]4[C@@]5(C)CC[C@H](OC(=O)/C=C/c6ccc(O)cc6)C(C)(C)[C@@H]5CC[C@]43C)[C@H]12 | 12.7 | 5.05 | 4.13 | 12.5 | 10.9 | 26.1 µM | 12.5 µM | 39.2 µM | 9.42 | 38.1 µM | 5.42 µM | 13.5 | 50.1 µM | 19.1 µM | > 74.5 µM | 2.44 | 22.9 µM | 2.37 | 9.12 | 1.83
4 | COc1cc(Cn2ccc3c2-c2oncc2CC3)cc(OC)c1 | > 100 | 5.54 | 2.39 | 9.45 | 1.95 | 7.24 µM | 2.99 µM | 9.79 µM | 16.4 | > 100 µM | 60 µM | 8.29 | > 100 µM | 8.75 µM | > 100 µM | 5.89 | > 100 µM | 5.23 | 97.9 | 5.2
5 | CCN(CC)CCCOc1cc(O)c2c(=O)cc(-c3ccccc3)oc2c1 | 22.5 | 6.16 |  |  | 13.3 | 27.1 µM | 15.5 µM | 34.1 µM | 5.94 | 25.1 µM | 28.8 µM | 10.1 | 27 µM | 3.42 µM | 17 µM | 12.1 | 24.5 µM | 5.53 | 19 | 11.6
6 | COc1cc2nc(N3CCCC3)nc(Nc3ccccc3)c2cc1OC | 4.31 | 1.38 | 1.83 | 3.56 | 1.74 | 4.07 µM | 1.8 µM | 3.3 µM | 1.43 | 2.8 µM | 2.78 µM | 2.09 | 4.16 µM | 1.76 µM | 3.18 µM | 1.65 | 3.14 µM | 1.65 | 2.67 | 1.4
7 | CN(C)C(=O)c1cc2cnc(Nc3ccc(-c4csc5c(=O)cc(N6CCNCC6)oc45)cc3)nc2n1C1CCCC1 | 3.81 | 1.78 | 0.99 | 2.59 | 6.9 | 32.7 µM | 0.871 µM | 2.72 µM | 1.34 | 5.73 µM | 1.03 µM | 2.09 | 7.14 µM | 2.14 µM | 6.88 µM | 0.551 | 2.62 µM | 1.16 | 5.51 | 0.27
8 | O=C1c2ccccc2-c2n[nH]c3cccc1c23 | > 100 |  | 5.03 | > 100 | 30.5 | 59.2 µM and > 100 µM | 23.8 µM | 92.1 µM and > 100 µM | 20.2 | > 100 µM | > 100 µM and 56.9 µM | 22.5 | > 100 µM | 49.3 µM | > 100 µM |  | > 100 µM |  | > 100 | 5.89
9 | Cc1cc2c3ccccc3ccc2[n+]2ccccc12 | > 76.9 | 29.4 | 6.53 | 22.8 | > 100 | > 100 µM | 2.28 µM | 11.8 µM | 2.88 | 14.8 µM | > 84.4 µM | 6.26 | 22.7 µM | 3.07 µM | 12.7 µM | 2.11 | 8.72 µM | 0.628 | > 100 | 14.3
10 | CC1(O)CC2(O)C=CC3=C(C(=O)c4cccc(O)c4C3=O)C2(O)C(=O)C1O (configuration not stated) | 25.3 |  |  | 2.74 |  | 20.2 µM |  | 5.19 µM |  | 2.86 µM | 2.13 µM |  | 9.07 µM |  | 3.2 µM |  | 30.4 µM |  | 3.1 | 
11 | OCCNc1ncnc2c1ncn2C1OC(CO)C(O)C1O (configuration not stated) | > 100 |  |  | > 100 |  | > 100 µM |  | > 100 µM |  | > 100 µM | > 100 µM |  | > 100 µM |  | > 100 µM |  | > 100 µM |  | > 100 | 
12 | CCN(C(=O)CCl)C(C)(C)C(SSSC(c1ccc(Cl)cc1)C(C)(C)N(CC)C(=O)CCl)c1ccc(Cl)cc1 (configuration not stated) | 31.1 | 4.78 | 1.91 | 3.65 | 8.31 | 24 µM | 8.46 µM | 21.6 µM | 5.04 | 19.6 µM | 13.8 µM | 6.14 | 18.7 µM | 2.05 µM | 4.31 µM | 13.9 | 30.3 µM | 15 | 16.9 | 2.95
13 | COc1ccc(/C=C/C(=O)c2ccc3cc(OC)c(OC)cc3c2)cc1OC | 10.6 | 3.81 | 5.47 | 21 | 2.71 | 8.85 µM | 3.2 µM | 13.5 µM | 3.5 | 36.7 µM | 8.15 µM | 11.5 | 31.6 µM | 11.2 µM | 32.3 µM | 5.29 | 29.8 µM | 2.59 | > 100 | 2.82

Source: PubChem BioAssay (NCI)
